According to patent US10287301B2 (Achillion Pharmaceuticals, Inc., priority 2015, dated 2019):
Where two headings read alike, the source gives them in different places.

Target: Human Factor D (Homo sapiens (Human), UniProt P00746)
Assay: Human Factor D Assay
Format: biochemical
Protocol: Human Factor D (purified from human serum, Complement Technology, Inc.) at 80 nM final concentration was incubated with test compound at various concentrations for 5 minutes at room temperature in 50 mM Tris, 1M NaCl, pH 7.5. A synthetic substrate Z-L-Lys-SBzl and DTNB (Ellman's reagent) are added to final concentrations of 100 μM each. […] IC50 values are calculated by nonlinear regression of complement Factor D reaction rates as a function of test compound concentration.

[1] = Human Factor D 80 nM, substrate Z-L-Lys-SBzl, read-out: IC50
[2] = Human Factor D assay of Example 8, Table 2, read-out: IC50
[3] = Human Factor D, Table 3, read-out: IC50

Human Factor D, sequence (P00746 26-253): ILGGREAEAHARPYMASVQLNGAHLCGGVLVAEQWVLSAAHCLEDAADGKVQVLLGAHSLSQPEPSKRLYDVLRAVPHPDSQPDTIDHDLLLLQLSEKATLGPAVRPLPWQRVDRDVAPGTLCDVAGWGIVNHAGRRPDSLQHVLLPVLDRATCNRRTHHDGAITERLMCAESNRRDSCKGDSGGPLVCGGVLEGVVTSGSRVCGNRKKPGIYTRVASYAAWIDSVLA

COc1ncc(-c2ccc3c(c2)c(C(N)=O)nn3CC(=O)N2C[C@H](F)C[C@H]2C(=O)Nc2cccc(-c3ccccc3Cl)c2F)cn1 [Compound 29, 1-(2-((2S,4R)-2-(2′-chloro-2-fluorobiphenyl-3-ylcarbamoyl)-4-fluoropyrrolidin-1-yl)-2-oxoethyl)-5-(2-methoxypyrimidin-5-yl)-1H-indazole-3-carboxamide] was tested, and the IC50 [1] was < 1 µM.

CC(=O)c1cn(CC(=O)N2C[C@H](F)C[C@H]2C(=O)Nc2cccc(Br)n2)c2ccc(-c3cccc(Cl)c3)cc12 [Compound 119, (2S,4R)-1-(2-(3-acetyl-5-(3-chlorophenyl)-1H-indol-1-yl)acetyl)-N-(6-bromopyridin-2-yl)-4-fluoropyrrolidine-2-carboxamide] was tested, and the IC50 [1] was < 1 µM.

In the case of CC(=O)c1nn(CC(=O)N2C[C@H](F)C[C@H]2C(=O)Nc2cccc(-c3cccc(S(C)(=O)=O)c3)c2F)c2ccc(-c3cnc(C)nc3)cc12 [Compound 295, (2S,4R)-1-(2-(3-Acetyl-5-(2-methylpyrimidin-5-yl)-1H-indazol-1-yl)acetyl)-4-fluoro-N-(2-fluoro-3′-(methylsulfonyl)-[1,1′-biphenyl]-3-yl)pyrrolidine-2-carboxamide], the IC50 [2] is reported as < 1 µM.

With CC(=O)c1cn(CC(=O)N2C[C@H](F)C[C@H]2C(=O)NCc2ccccc2)c2ccc(-c3cnc(C)nc3)cc12 [Compound 442, (2S,4R)-1-(2-(3-Acetyl-5-(2-methylpyrimidin-5-yl)-1H-indol-1-yl)acetyl)-N-benzyl-4-fluoropyrrolidine-2-carboxamide] the IC50 (Table 3, Human Factor D 80 nM, substrate Z-L-Lys-SBzl, read-out: IC50 (Stars)) was < 1 µM.

NC(=O)c1nn(CC(=O)N2C[C@H](F)C[C@H]2C(=O)NCc2nc3ccccc3s2)c2ccc(-c3ccnnc3)cc12 [Compound 52, 1-(2-((2S,4R)-2-(benzo[d]thiazol-2-ylmethylcarbamoyl)-4-fluoropyrrolidin-1-yl)-2-oxoethyl)-5-(pyridazin-4-yl)-1H-indazole-3-carboxamide] was tested, and the IC50 [1] was > 10 µM.

For NC(=O)c1nn(CC(=O)N2C[C@H](F)C[C@H]2C(=O)Nc2cccc(-c3ccccc3Cl)c2F)c2cnc(-c3cncnc3)cc12 [Compound 19, 1-(2-((2S,4R)-2-((2′-Chloro-2-fluoro-[1,1′-biphenyl]-3-yl)carbamoyl)-4-fluoropyrrolidin-1-yl)-2-oxoethyl)-5-(pyrimidin-5-yl)-1H-pyrazolo[3,4-c]pyridine-3-carboxamide], the IC50 [1] was < 1 µM.

For CC(=O)c1nn(CC(=O)N2C[C@H](F)C[C@H]2C(=O)Nc2cccc(OC(F)F)c2F)c2ccc(-c3cnc4ccnn4c3)cc12 [Compound 282, (2S,4R)-1-(2-(3-acetyl-5-(pyrazolo[1,5-a]pyrimidin-6-yl)-1H-indazol-1-yl)acetyl)-N-(3-(difluoromethoxy)-2-fluorophenyl)-4-fluoropyrrolidine-2-carboxamide], the IC50 [2] was < 1 µM.

In the case of CC(=O)c1nn(CC(=O)N2CCOC[C@@H]2C(=O)Nc2cccc(Br)n2)c2ccc(-c3cnc(C)nc3)cc12 [Compound 748, (R)-4-(2-(3-acetyl-5-(2-methylpyrimidin-5-yl)-1H-indazol-1-yl)acetyl)-N-(6-bromopyridin-2-yl)morpholine-3-carboxamide], the IC50 [3] is reported as < 1 µM.

CC(=O)c1nn(CC(=O)N2C[C@H](F)C[C@H]2C(=O)Nc2cccc(Br)n2)c2ccc(-c3cnc(C(C)C)nc3)cc12 [Compound 567, (2S,4R)-1-(2-(3-Acetyl-5-(2-isopropylpyrimidin-5-yl)-1H-indazol-1-yl)acetyl)-N-(6-bromopyridin-2-yl)-4-fluoropyrrolidine-2-carboxamide] was tested, and the IC50 [3] was < 1 µM.

For COCCOCCOCCOCCOCCOc1ncc(-c2ccc3c(c2)c(C(C)=O)nn3CC(=O)N2C[C@H](F)C[C@H]2C(=O)Nc2cccc(Br)n2)cn1 [Compound 316], the IC50 [2] was < 1 µM.

In the case of CC(=O)c1nn(CC(=O)N2C[C@H](F)C[C@H]2C(=O)Nc2cccc(OC(F)(F)F)n2)c2ccc(-c3cnc4cc(C5CC5)nn4c3)cc12 [Compound 672, (2S,4R)-1-(2-(3-Acetyl-5-(2-cyclopropylpyrazolo[1,5-a]pyrimidin-6-yl)-1H-indazol-1-yl)acetyl)-4-fluoro-N-(6-(trifluoromethoxy)pyridin-2-yl)pyrrolidine-2-carboxamide], the IC50 [3] is reported as < 1 µM.
